These results are taken from PubChem BioAssay (NCI).

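All cell lines were grown in 96-well plates and treated with compound for 48 hours. GI50 is the concentration that inhibits growth by half. TGI marks complete inhibition of growth.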

Common to all, as to assay: DTP human tumour cell line panel, 48 h
Assay [1] deals with TK-10 renal.
The test system of assay [2] is NCI-H226 lung.
The subject of assay [3] is UACC-62 melanoma.
For assay [4], the system named is EKVX NSCLC.
Assay [5] deals with COLO 205 colon.
The subject of assay [6] is KM12 colon.
The test system of assay [7] is HCC-2998 colon.
The subject of assay [8] is CAKI-1 renal.

The term TGI denotes the concentration giving total growth inhibition. Turning to `Cc1ccccc1NC(=O)C(=O)C(C#N)c1ccc(Cl)cc1` (stereo unspecified), the total growth inhibition concentration (TGI) in assay [1], in assay [2], in assay [3], in assay [4], in assay [5] and in assay [6] was greater than 100 µM throughout. The TGI in assay [7] was 75.9 µM; in assay [8], greater than 100 µM.
In the case of `CC(C)(C)OC1=C(OC(C)(C)C)C(O)(c2ccccc2)C1=O` (stereo unspecified), the TGI in assay [1], in assay [3], in assay [4], in assay [5], in assay [6] and in assay [7] was greater than 100 µM each time.
In the case of `Cc1ccc(NC(=O)c2cc3cc(N=Nc4ccc(Br)cc4)ccc3oc2=O)cc1`, the TGI in assay [1], in assay [2], in assay [5], in assay [6], in assay [7] and in assay [8] was greater than 100 µM in each case.
`COc1ccc(C2CC(=O)c3c(O)cc(O)cc3O2)cc1O` (stereo unspecified): the TGI in assay [1], in assay [2], in assay [3], in assay [4], in assay [5] and in assay [6] was greater than 100 µM in each case. For the same molecule, the TGI in assay [7] and in assay [8] was greater than 100 µM each time.
For `COc1c(C=O)c2c(c(OC)c1OC)-c1ccc(OC)c(=O)cc1[C@@H](NC(C)=O)CC2`, the TGI in assay [1] was greater than 100 µM; in assay [2], 4.17 µM; in assay [3], greater than 92.3 µM; in assay [4] it was greater than 100 µM; in assay [5], 0.574 µM; in assay [6], 0.632 µM. The values for the TGI in assay [7] and in assay [8] were 34.4 µM and greater than 30.9 µM, respectively.
Consider `O=C(Nc1ccccc1-c1n[nH]c(=S)[nH]c1=O)C(F)(F)F`, for which the TGI in assay [1], in assay [2], in assay [3], in assay [4], in assay [5] and in assay [6] was greater than 100 µM in each case. The total growth inhibition concentration (TGI) in assay [7] and in assay [8] was greater than 100 µM in each case.
Regarding `O=C(Nc1ccc(Cl)cc1Cl)C1C(=O)N(c2ccc(Cl)cc2Cl)C(=O)/C1=N\Nc1ccc([N+](=O)[O-])cc1[N+](=O)[O-]` (stereo unspecified), the TGI in assay [1], in assay [2], in assay [3], in assay [4], in assay [5] and in assay [6] was greater than 100 µM in each case. Also, the TGI in assay [7] and in assay [8] was greater than 100 µM in each case.
Take `CS/C(=N\C(=S)N(C)C)N(c1ccccc1)c1nc(=[N+](C)C)ss1`: the total growth inhibition concentration (TGI) in assay [1] is greater than 100 µM; in assay [3] it was 19.2 µM; in assay [4] it was 49.3 µM; in assay [5] it was 7.04 µM; in assay [6], 15.8 µM; in assay [7], 28.9 µM. For the same molecule, in assay [8], the TGI was determined as 80.2 µM.
Turning to `ON/N=C/c1cc2c(cc1Br)OCO2`, the TGI in assay [1], in assay [2], in assay [3], in assay [4], in assay [5] and in assay [6] was greater than 386 µM in each case. The TGI in assay [7] and in assay [8] was greater than 386 µM in each case.
As for `CCOC(=O)Nc1cc2nnc(-c3ccccc3)nc2c(N)n1`, the TGI in assay [1] was greater than 100 µM; in assay [2], 71.8 µM; in assay [3], greater than 100 µM; in assay [4], greater than 100 µM; in assay [5] it was 40.5 µM; in assay [6] it was greater than 100 µM. Also, the TGI in assay [7] and in assay [8] was greater than 100 µM throughout.
In the case of `COC(=O)C1=C(c2ccc(OC)c(OC)c2)OC(c2ccc(OC)c(OC)c2)C1` (stereo unspecified), the TGI in assay [1] was greater than 100 µM; in assay [2], greater than 100 µM; in assay [3] it was greater than 100 µM; in assay [4], greater than 100 µM; in assay [5] it was 36.4 µM; in assay [6] it was greater than 100 µM. The TGI in assay [7] is greater than 100 µM.
`CC(NS(=O)(=O)c1ccc([N+](=O)[O-])cc1)C(=O)O` (stereo unspecified): the TGI in assay [1], in assay [2], in assay [3], in assay [4], in assay [5] and in assay [6] was greater than 100 µM throughout. For the same molecule, the total growth inhibition concentration (TGI) in assay [7] and in assay [8] was greater than 100 µM throughout.
In the case of `Cc1ccc(S(=O)(=O)c2c(N)c3nc4ccccc4n3c3nc4ccccc4nc23)cc1`, the TGI in assay [2], in assay [3], in assay [4], in assay [5], in assay [6] and in assay [7] was greater than 100 µM throughout. The TGI in assay [8] was greater than 100 µM.
Take `Cc1cc(N(CCC#N)CCC#N)ccc1/C=C1N=C(/C=C\c2ccccc2)OC\1=O`: the TGI in assay [1], in assay [2], in assay [3], in assay [4], in assay [5] and in assay [6] was greater than 100 µM each time. In addition, the TGI in assay [7] and in assay [8] was greater than 100 µM each time.
As for `O=C(Nc1c(O)[nH]c(=S)[nH]c1=O)c1ccccc1F`, the TGI in assay [1], in assay [2], in assay [3], in assay [5], in assay [6] and in assay [8] was greater than 100 µM in each case.
Consider `O=C(/C=C/c1ccc(OCCCOc2ccc(/C=C/C(=O)c3ccccc3)cc2)cc1)c1ccccc1`, for which the TGI in assay [1], in assay [2], in assay [3], in assay [4], in assay [5] and in assay [7] was greater than 100 µM each time.
Turning to `CC1CC(C2=CC=CCS2)=Nc2ccccc2S1` (stereo unspecified), the TGI in assay [1], in assay [3], in assay [4], in assay [5], in assay [6] and in assay [7] was greater than 100 µM in each case. The molecule further gave a TGI in assay [8] greater than 100 µM.
Regarding `C/C(CN1C(=O)c2ccccc2C1=O)=N\NS(=O)(=O)c1ccc(C)cc1`, the TGI in assay [1], in assay [2], in assay [3], in assay [4], in assay [5] and in assay [6] was greater than 100 µM each time. Also, the TGI in assay [7] and in assay [8] was greater than 100 µM each time.
For the molecule `CN(C)c1ccc2c(=O)c3ccccc3oc2n1`, the TGI in assay [1], in assay [3], in assay [4], in assay [5], in assay [6] and in assay [7] was greater than 100 µM in each case. Moreover, in assay [8], the TGI is greater than 100 µM.
As for `NC1=NC(=O)/C(=C/c2ccccc2[N+](=O)[O-])C(N)=N1`, the TGI in assay [1], in assay [2], in assay [3], in assay [4], in assay [5] and in assay [6] was greater than 100 µM in each case. The TGI in assay [7] and in assay [8] was greater than 100 µM in each case.
For `N#Cc1ccccc1NC(=O)/C(=N\N)C(C(=O)c1ccncc1)C1OC(=O)c2ccccc21` (stereo unspecified), the TGI in assay [1], in assay [2], in assay [3], in assay [4], in assay [5] and in assay [6] was greater than 100 µM in each case. The molecule further showed a TGI in assay [7] greater than 100 µM.
With `COc1ccccc1/C=C(\C#N)c1ccccc1`, the concentration for total growth inhibition (TGI) in assay [1] was 95.6 µM; in assay [2] it was greater than 100 µM; in assay [3] it was greater than 100 µM; in assay [5] it was 32.4 µM; in assay [6] it was greater than 100 µM; in assay [7] it was greater than 100 µM. The TGI in assay [8] is greater than 100 µM.
The term GI50 denotes the concentration at which growth is held to half of that of the control. In the case of `COc1cc2c(cc1O)CC[C@@H]1[C@@H]2CC[C@]2(C)[C@@H](NCCN(C)C)CC[C@@H]12`, the GI50 in assay [1] was 0.467 µM; in assay [2], 0.698 µM; in assay [3] it was 0.0994 µM; in assay [4] it was 0.341 µM; in assay [5] it was 0.107 µM; in assay [7], 0.22 µM. Besides, the GI50 in assay [8] is 0.464 µM. The TGI in assay [1] is 0.932 µM; in assay [2], 1.59 µM; in assay [3], 0.274 µM; in assay [4], 0.804 µM; in assay [5], 0.4 µM; in assay [7] it was 0.716 µM. In assay [8], this molecule returned a total growth inhibition concentration (TGI) of 0.945 µM.
Consider `CN1N=CSC12C(=O)N(c1ccc(Cl)cc1)C(=O)N2c1ccc(Cl)cc1` (stereo unspecified), for which the TGI in assay [1] is 81.1 µM; in assay [2] it was 8.66 µM; in assay [3], 29.1 µM; in assay [4], greater than 100 µM; in assay [5] it was 3.38 µM; in assay [6], 30.3 µM. Besides, the TGI in assay [7] was 37.7 µM; in assay [8], greater than 100 µM.
On to `COc1cccc2c1C(=O)C=CC2=O`, for which the TGI was determined as 28.4 µM in assay [1]; 38.3 µM in assay [2]; 25.3 µM in assay [3]; 32.8 µM in assay [4]; 20.5 µM in assay [5]; 25 µM in assay [6]. The TGI in assay [7] was found to be 29.3 µM; in assay [8], 13 µM.
